The target of this test is T1, active p38 alpha enzyme (Upstate Biotechnology) (Homo sapiens, UniProt Q16539).
T1 construct: purchased Upstate Biotechnology
The experiment in a line: p38α biochemical assay (ATP turnover, luminescent detection, Cambrex PKlight). Particulars: p38α biochemical assay, Table 1 Biological Activity. The procedure, abridged:
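Measures total ATP turnover by luminescence after human p38α phosphorylates full MapkapK2 protein. Final ATP is 1.4 uM, and incubation runs 2 hours at 30C. The buffer includes 100 mM MgCl2, 4 mM CaCl2 and 1 mg/ml BSA.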

SMILES strings stand for the structures.

T1 sequence (Q16539 whole entry): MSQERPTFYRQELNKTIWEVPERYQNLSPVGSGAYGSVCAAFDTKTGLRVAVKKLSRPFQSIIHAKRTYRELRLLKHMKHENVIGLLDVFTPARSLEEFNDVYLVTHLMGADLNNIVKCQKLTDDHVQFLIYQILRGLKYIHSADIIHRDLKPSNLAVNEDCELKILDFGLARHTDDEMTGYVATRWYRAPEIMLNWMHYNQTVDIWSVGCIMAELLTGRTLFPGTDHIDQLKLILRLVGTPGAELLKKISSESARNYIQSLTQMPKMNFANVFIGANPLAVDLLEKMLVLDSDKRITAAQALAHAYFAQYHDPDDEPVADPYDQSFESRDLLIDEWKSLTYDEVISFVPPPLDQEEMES

A word on the IC50: it is the concentration that inhibits the measured activity by half. In the case of `CC(C)NC(=O)c1csc(-c2oc(CN3CCN(C(=O)c4ccc(C(F)(F)F)cc4[N+](=O)[O-])CC3)nc2-c2ccc(F)cc2)n1` [Example 556], the IC50 is greater than 1 µM. The molecule `CC(C)NC(=O)c1csc(-c2oc(CN3CCN(C(=O)c4cc(Br)ccc4Cl)CC3)nc2-c2ccc(F)cc2)n1` [Example 557] came in with an IC50 greater than 1 µM. Then `CC(C)NC(=O)c1csc(-c2oc(CN3CCN(C(=O)c4ccc(Cl)c(Br)c4)CC3)nc2-c2ccc(F)cc2)n1` [Example 558], with greater than 1 µM. Regarding `CC(C)NC(=O)c1csc(-c2oc(CN3CCN(C(=O)c4ccccc4C(=O)c4ccc(O)cc4)CC3)nc2-c2ccc(F)cc2)n1` [Example 559], the IC50 is greater than 1 µM. Then `CC(C)NC(=O)c1csc(-c2oc(CN3CCN(C(=O)c4ccccc4C(=O)c4ccc(F)cc4)CC3)nc2-c2ccc(F)cc2)n1` [Example 560], with greater than 1 µM; and `CC(C)NC(=O)c1csc(-c2oc(CN3CCN(C(=O)C(C)c4ccc(-c5ccccc5)c(F)c4)CC3)nc2-c2ccc(F)cc2)n1` (centres unmarked) [Example 561], with greater than 1 µM; and `CC(C)NC(=O)c1csc(-c2oc(CN3CCN(C(=O)C4CCCN4C(=O)OCc4ccccc4)CC3)nc2-c2ccc(F)cc2)n1` (centres unmarked) [Example 564], with greater than 1 µM. Then `CCC(C)C(NC(=O)OC(C)(C)C)C(=O)N1CCN(Cc2nc(-c3ccc(F)cc3)c(-c3nc(C(=O)NC(C)C)cs3)o2)CC1` (centres unmarked) [Example 565], with greater than 1 µM; and `CC(C)CC(NC(=O)OC(C)(C)C)C(=O)N1CCN(Cc2nc(-c3ccc(F)cc3)c(-c3nc(C(=O)NC(C)C)cs3)o2)CC1` (centres unmarked) [Example 566], with greater than 1 µM; and `CC(C)NC(=O)c1csc(-c2oc(CN3CCN(C(=O)C(C)c4cccc(C(=O)c5ccccc5)c4)CC3)nc2-c2ccc(F)cc2)n1` (centres unmarked) [Example 567], with greater than 1 µM. Then `CC(C)NC(=O)c1csc(-c2oc(CN3CCN(C(=O)C(Cc4ccccc4)NC(=O)OC(C)(C)C)CC3)nc2-c2ccc(F)cc2)n1` (centres unmarked) [Example 568], with greater than 1 µM; and `CC(C)NC(=O)c1csc(-c2oc(CN3CCN(C(=O)C(Cc4ccccn4)NC(=O)OC(C)(C)C)CC3)nc2-c2ccc(F)cc2)n1` (centres unmarked) [Example 569], with greater than 1 µM; and `CC(C)NC(=O)c1csc(-c2oc(CN3CCN(C(=O)C4Cc5ccccc5CN4C(=O)OC(C)(C)C)CC3)nc2-c2ccc(F)cc2)n1` (centres unmarked) [Example 570], with greater than 1 µM. For the molecule `CC(C)NC(=O)c1csc(-c2oc(CN3CCN(C(=O)C(Cc4ccc(O)cc4)NC(=O)OC(C)(C)C)CC3)nc2-c2ccc(F)cc2)n1` (centres unmarked) [Example 571], the IC50 was no more than 1 µM. Then `CC(C)NC(=O)c1csc(-c2oc(CN3CCNCC3)nc2-c2ccc(F)cc2)n1` [Example 572], with greater than 1 µM; and `CC(=O)NCc1onc(-c2ccc(F)cc2)c1-c1nc(C(=O)NC(C)C)cs1` [Example 573], with greater than 1 µM; and `CC(C)NC(=O)c1csc(-c2c(-c3ccc(F)cc3)noc2CNC(=O)C=O)n1` [Example 574], with greater than 1 µM. Then `CC(C)NC(=O)c1csc(-c2c(-c3ccc(F)cc3)noc2CNC(=O)CC#N)n1` [Example 575], with no more than 1 µM; and `CC(C)NC(=O)c1csc(-c2c(-c3ccc(F)cc3)noc2CNC(=O)C(C)O)n1` (centres unmarked) [Example 576], with greater than 1 µM.

Regarding `CCC(=O)C(=O)NCc1onc(-c2ccc(F)cc2)c1-c1nc(C(=O)NC(C)C)cs1` [Example 577], the IC50 was greater than 1 µM. Take `CC(C)NC(=O)c1csc(-c2c(-c3ccc(F)cc3)noc2CNC(=O)C(C)(C)C)n1` [Example 578]: the IC50 is greater than 1 µM. Take `CC(C)CC(=O)NCc1onc(-c2ccc(F)cc2)c1-c1nc(C(=O)NC(C)C)cs1` [Example 579]: the IC50 was greater than 1 µM.

`CC(C)NC(=O)c1csc(-c2c(-c3ccc(F)cc3)noc2CNC(=O)c2cnc[nH]2)n1` [Example 580] showed an IC50 greater than 1 µM. Then `CC(C)NC(=O)c1csc(-c2c(-c3ccc(F)cc3)noc2CNC(=O)c2ncc[nH]2)n1` [Example 581], with greater than 1 µM.

Molecule `CC(C)NC(=O)c1csc(-c2c(-c3ccc(F)cc3)noc2CNC(=O)C2=CCCC2)n1` [Example 582] returned an IC50 greater than 1 µM. `CC(C)NC(=O)c1csc(-c2c(-c3ccc(F)cc3)noc2CNC(=O)C(F)(F)F)n1` [Example 583] registered an IC50 of no more than 1 µM. Take `CC(C)NC(=O)c1csc(-c2c(-c3ccc(F)cc3)noc2CNC(=O)C2CCCO2)n1` (centres unmarked) [Example 584]: the IC50 was greater than 1 µM.

Regarding `CC(=O)NCC(=O)NCc1onc(-c2ccc(F)cc2)c1-c1nc(C(=O)NC(C)C)cs1` [Example 585], the IC50 was greater than 1 µM. Then `CC(C)NC(=O)c1csc(-c2c(-c3ccc(F)cc3)noc2CNC(=O)c2ccccc2)n1` [Example 586], with greater than 1 µM; and `CC(C)NC(=O)c1csc(-c2c(-c3ccc(F)cc3)noc2CNC(=O)c2cccnc2)n1` [Example 587], with greater than 1 µM. For the molecule `CC(C)NC(=O)c1csc(-c2c(-c3ccc(F)cc3)noc2CNC(=O)c2ccncc2)n1` [Example 588], the IC50 was greater than 1 µM. Then `CC(C)NC(=O)c1csc(-c2c(-c3ccc(F)cc3)noc2CNC(=O)c2ccccn2)n1` [Example 589], with greater than 1 µM. Then `CC(C)NC(=O)c1csc(-c2c(-c3ccc(F)cc3)noc2CNC(=O)C(O)CCl)n1` (centres unmarked) [Example 590], with no more than 1 µM; and `Cc1cc(C(=O)NCc2onc(-c3ccc(F)cc3)c2-c2nc(C(=O)NC(C)C)cs2)n[nH]1` [Example 591], with greater than 1 µM. Then `CC(C)NC(=O)c1csc(-c2c(-c3ccc(F)cc3)noc2CNC(=O)c2cn(C)cn2)n1` [Example 592], with greater than 1 µM. Regarding `CC(C)NC(=O)c1csc(-c2c(-c3ccc(F)cc3)noc2CNC(=O)C2CCCCC2)n1` [Example 593], the IC50 is greater than 1 µM. Then `CC(C)NC(=O)c1csc(-c2c(-c3ccc(F)cc3)noc2CNC(=O)c2cscn2)n1` [Example 594], with greater than 1 µM; and `CCOC(=O)CC(=O)NCc1onc(-c2ccc(F)cc2)c1-c1nc(C(=O)NC(C)C)cs1` [Example 595], with greater than 1 µM. As for `Cc1cccc(C(=O)NCc2onc(-c3ccc(F)cc3)c2-c2nc(C(=O)NC(C)C)cs2)c1` [Example 596], the half-inhibitory concentration (IC50) is greater than 1 µM. Then `Cc1ccccc1C(=O)NCc1onc(-c2ccc(F)cc2)c1-c1nc(C(=O)NC(C)C)cs1` [Example 597], with greater than 1 µM; and `Cc1ccc(C(=O)NCc2onc(-c3ccc(F)cc3)c2-c2nc(C(=O)NC(C)C)cs2)cc1` [Example 598], with greater than 1 µM. Then `CC(C)NC(=O)c1csc(-c2c(-c3ccc(F)cc3)noc2CNC(=O)c2cccc(O)c2)n1` [Example 599], with greater than 1 µM; and `CC(C)NC(=O)c1csc(-c2c(-c3ccc(F)cc3)noc2CNC(=O)c2ccccc2O)n1` [Example 600], with greater than 1 µM; and `CC(C)NC(=O)c1csc(-c2c(-c3ccc(F)cc3)noc2CNC(=O)c2ccc(F)cc2)n1` [Example 601], with greater than 1 µM. As for `CC(C)NC(=O)c1csc(-c2c(-c3ccc(F)cc3)noc2CNC(=O)c2cccc(F)c2)n1` [Example 602], the IC50 is greater than 1 µM. As to `CCCCCCCC(=O)NCc1onc(-c2ccc(F)cc2)c1-c1nc(C(=O)NC(C)C)cs1` [Example 603], the IC50 was greater than 1 µM. Consider `CC(C)NC(=O)c1csc(-c2c(-c3ccc(F)cc3)noc2CNC(=O)c2ccc(C#N)cc2)n1` [Example 604], for which the IC50 was greater than 1 µM.

The values are drawn from patent US20060252807A1, “Novel ortho-terphenyl inhibitors of p38 kinase and methods of treating inflammatory disorders” (Kalypsys, Inc., priority 2005, published 2006).
